Source: ChEMBL document CHEMBL4265953, “Exploration of novel pyrrolo[2,1-f][1,2,4]triazine derivatives with improved anticancer efficacy as dual inhibitors of c-Met/VEGFR-2” (Eur J Med Chem, 2018)
In brackets after ≈: the same amount, converted by molar mass.

Experiments:
physchem [1] = settings: n-octanol/water
physchem [2] = assay: physchem
[3] = octanol/water, 0.5 h
[4] = AUC in Sprague-Dawley rat at 10 mg/kg, po by LC-MS analysis; assay type: ADME, organism-based; settings: in vivo
[5] = AUC in Sprague-Dawley rat at 2 mg/kg, iv by LC-MS analysis; assay type: ADME, organism-based; settings: in vivo
[6] = Cmax in Sprague-Dawley rat at 10 mg/kg, po by LC-MS analysis; assay type: ADME, organism-based; design: dose 10 mg/kg, route oral; settings: in vivo
[7] = Clearance in Sprague-Dawley rat at 2 mg/kg, iv by LC-MS analysis; assay type: ADME, organism-based; settings: in vivo
[8] = Tmax in Sprague-Dawley rat at 10 mg/kg, po by LC-MS analysis; assay type: ADME, organism-based; settings: in vivo
[9] = Oral bioavailability in Sprague-Dawley rat at 10 mg/kg by LC-MS analysis; assay type: ADME, organism-based; settings: in vivo
[10] = Half life in Sprague-Dawley rat at 2 mg/kg, iv by LC-MS analysis; assay type: ADME, organism-based; settings: in vivo
[11] = Cmax in Sprague-Dawley rat at 2 mg/kg, iv by LC-MS analysis; assay type: ADME, organism-based; design: dose 2 mg/kg, route intravenous; settings: in vivo
[12] = Half life in Sprague-Dawley rat at 10 mg/kg, po by LC-MS analysis; assay type: ADME, organism-based; settings: in vivo

logP at 0.5 h (physchem [1]) | solubility at 1 h (physchem [2]) [µg/mL] | logP [3] | AUC [4] [ng·h/mL] | AUC [5] [ng·h/mL] | Cmax [6] [ng/mL] | clearance [7] [mL/min/kg] | Tmax [8] [h] | bioavailability [9] [%] | half-life [10] [h] | Cmax [11] [ng/mL] | half-life [12] [h] | SMILES
3.89 | < 0.1 | – | – | – | – | – | – | – | – | – | – | COc1cc2nccc(Oc3ccc(NC(=O)C4(C(=O)Nc5ccc(F)cc5)CC4)cc3)c2cc1OC [CABOZANTINIB]
– | 52 | 1.89 | – | – | – | – | – | – | – | – | – | COc1cc2nccc(Oc3ccc(NC(=O)C4(C(=O)Nc5ccc(F)cc5)CC4)cc3)c2cc1OC.O=C(O)C[C@H](O)C(=O)O [CABOZANTINIB S-MALATE]
2.98 | 20.5 (≈ 32.2 µM) | – | 1170 | 239 | 129 | 139 | 5 | 98.1 | 2.16 | 72.1 | 5 | Cc1c(OCC(O)CN2CCN(C)CC2)cn2ncnc(Oc3ccc(NC(=O)C4(C(=O)Nc5ccc(F)cc5)CC4)cc3F)c12 (stereo not given)
